# Test results taken from ChEMBL document CHEMBL3045346, “In vivo evaluation of substituted 2,3-diaryl acrylophenone amide derivatives as anti-implantation agents” (2009).
# Activity calls are given as the source filed them. The rule behind the calls is not given here.
# Tested on: Rattus norvegicus
# Test: Anti-implanatation activity in female Rattus norvegicus Sprague-Dawley (rat) assessed as implantation in uterine horns at 10 mg/kg, po administered on day 1 to 5 post-coitum measured on day 10 of pregnancy by laparotomy
# Format: functional
row,Structure (SMILES),Activity
1,CCCCNC(=O)COc1ccc(/C=C(/C(=O)c2ccc(OC)cc2)c2ccccc2)cc1,inactive
2,CCCCCCCCCCCCNC(=O)COc1ccc(/C=C(/C(=O)c2ccc(OC)cc2)c2ccccc2)cc1,67%
3,CCCCN(C)C(=O)COc1ccc(/C=C(/C(=O)c2ccc(OC)cc2)c2ccc(OC)cc2)cc1,inactive
4,CCCCCCCCNC(=O)COc1ccc(/C=C(/C(=O)c2ccc(OC)cc2)c2ccc(OC)cc2)cc1,100%
5,CCCCCCCCNC(=O)COc1ccc(/C=C(/C(=O)c2ccc(OC)cc2)c2ccccc2)cc1,33%
6,CCCNC(=O)COc1ccc(/C=C(/C(=O)c2ccc(OC)cc2)c2ccccc2)cc1,inactive
7,CCCCNC(=O)COc1ccc(/C=C(/C(=O)c2ccc(OC)cc2)c2ccc(OC)cc2)cc1,67%
8,CCCCCCN(CC)C(=O)COc1ccc(/C=C(/C(=O)c2ccc(OC)cc2)c2ccccc2)cc1,33%
9,CCCCCCCCCCCCNC(=O)COc1ccc(/C=C(/C(=O)c2ccc(OC)cc2)c2ccc(OC)cc2)cc1,inactive
10,COc1ccc2c(c1)OC(C)(C)[C@H](c1ccccc1)[C@H]2c1ccc(OCCN2CCCC2)cc1 (relative stereo) [REL-ORMELOXIFENE],100%
11,CCCCCCCCCNC(=O)COc1ccc(/C=C(/C(=O)c2ccc(OC)cc2)c2ccccc2)cc1,inactive
12,CCCCN(C)C(=O)COc1ccc(/C=C(/C(=O)c2ccc(OC)cc2)c2ccccc2)cc1,67%
